The results in this text go back to US4262013A, “Mevalonolactone derivatives and process for the preparation thereof” (Sankyo Company Limited, priority 1977, dated 1981).

Like-named read-outs stand apart in the source and are kept apart here.

Assay [1] addresses T1, 3-hydroxy-3-methylglutaryl coenzyme A reductase (Rattus norvegicus, UniProt P51639).
T1 construct: from tissue
T1 sequence (P51639 1-887): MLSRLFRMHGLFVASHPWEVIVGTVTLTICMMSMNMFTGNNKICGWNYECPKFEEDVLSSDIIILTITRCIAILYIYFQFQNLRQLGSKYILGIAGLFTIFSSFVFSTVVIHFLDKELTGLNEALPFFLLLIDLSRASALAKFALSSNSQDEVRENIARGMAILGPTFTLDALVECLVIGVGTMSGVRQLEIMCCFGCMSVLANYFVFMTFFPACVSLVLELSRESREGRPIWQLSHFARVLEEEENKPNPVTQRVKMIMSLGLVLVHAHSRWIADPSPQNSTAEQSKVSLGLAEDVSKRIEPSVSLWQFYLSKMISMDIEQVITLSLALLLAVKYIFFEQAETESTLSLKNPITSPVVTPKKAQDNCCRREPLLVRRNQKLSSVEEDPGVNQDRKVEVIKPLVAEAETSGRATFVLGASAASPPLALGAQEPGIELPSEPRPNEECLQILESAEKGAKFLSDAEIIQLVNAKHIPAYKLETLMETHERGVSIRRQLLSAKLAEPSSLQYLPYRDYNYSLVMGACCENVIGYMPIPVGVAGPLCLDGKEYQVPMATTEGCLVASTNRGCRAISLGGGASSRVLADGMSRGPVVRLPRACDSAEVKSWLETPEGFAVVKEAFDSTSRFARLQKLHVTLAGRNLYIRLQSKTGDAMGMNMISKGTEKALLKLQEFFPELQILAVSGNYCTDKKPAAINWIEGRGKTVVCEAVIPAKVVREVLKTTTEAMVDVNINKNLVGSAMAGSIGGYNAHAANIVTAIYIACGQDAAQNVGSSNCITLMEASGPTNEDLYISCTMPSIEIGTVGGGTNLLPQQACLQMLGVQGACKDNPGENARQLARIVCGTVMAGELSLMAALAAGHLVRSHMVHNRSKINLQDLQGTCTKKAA
The experiment in a line: Assay Method A: inhibitory activity to cholesterol biosynthesis in vitro, 50% inhibition of the enzyme activity (method of Knauss et al). The format is biochemical.

The test system of assay [2] is cholesterol biosynthesis in L-cells of mice (929). The experiment in a line: Assay Method B: inhibition of 14C-cholesterol biosynthesis from 14C-acetic acid in L-cells of mice (929) (method of Kandutsch et al). The format is cell-based. The note with it: Mus musculus, mole concentration for 50% inhibition of cholesterol biosynthesis, read-out: ID50 (M) Assay Method B. From the text: The inhibitory activity of these compounds to cholesterol biosynthesis was further evaluated according to the method described in A. A. Kandutsch et al, Journal of Biological Chemistry, 248, 8408 (1973) by measuring the amount of ^14 C-cholesterol biosynthesized from ^14 C-acetic acid using L-cells of mice (929), and the activity was expressed by the mole concentration [I50 (M)] for 50% inhibition of cholesterol biosynthesis (Assay Method B).

Where [3] appears, read: Assay Method A, in vitro, mole concentration for 50% inhibition of the enzyme activity, read-out: ID50 (M) Assay Method A.

Take `CC1(O)CC(=O)OC(c2ccc(OCc3ccccc3)cc2)C1` (stereo not drawn) [A, 3-Hydroxy-3-methyl-5-(p-benzyloxyphenyl)-5-pentanolide]: the IC50 in assay [1] (setting [3]) stood at 6.2e-05 M; in assay [2], 0.00013 M.
The corresponding values for `CC1(O)CC(=O)OC(c2ccc(-c3ccccc3)cc2)C1` (stereo not drawn) [B, 3-Hydroxy-3-methyl-5-(4-biphenylyl)-5-pentanolide] are 0.0001 M and 0.00016 M.
The like results for `CC1(O)CC(=O)OC(CCc2ccccc2)C1` (stereo not drawn) [C, 3-Hydroxy-3-methyl-7-phenyl-5-heptanolide] were, in that order, 0.00036 M and 4.2e-05 M.
`CCOC(=O)C(C)(C)Oc1ccc(Cl)cc1` [Clofibrate, reference compound]: the IC50 in assay [1] was found to be 0.001 M; in assay [2], 8e-05 M.
With `CC1(O)CC(=O)OC(CCc2ccccc2)C1Br` (stereo not drawn) [Compound D, 3-Hydroxy-3-methyl-4-bromo-7-phenyl-5-heptanolide], the IC50 in assay [1] (setting [3]) was 0.0001 M.
Turning to `CC1C(CCc2ccccc2)OC(=O)CC1(C)O` (stereo not drawn) [E, 3-Hydroxy-3,4-dimethyl-7-phenyl-5-heptanolide], the IC50 in assay [1] (setting [3]) came to 6.7e-05 M.
With `CC1(O)CC(=O)OC(CCc2ccc(O)cc2)C1` (stereo not drawn) [F, 3-Hydroxy-3-methyl-7-(p-hydroxyphenyl)-5-heptanolide], in assay [1] (setting [3]), the IC50 was 6.6e-05 M.
In the case of `CC(=O)OC1(C)CC(=O)OC(CCc2ccc(OCc3ccccc3)cc2)C1` (stereo not drawn) [G, 3-Acetoxy-3-methyl-7-(p-benzyloxyphenyl)-5-heptanolide], the IC50 in assay [1] (setting [3]) was found to be 4.5e-05 M; in assay [2], 3.1e-05 M.
The corresponding values for `CC1(O)CC(=O)OC(CCc2ccc(OCc3ccccc3)cc2)C1` (stereo not drawn) [H, 3-Hydroxy-3-methyl-7-(p-benzyloxyphenyl)-5-heptanolide] are 4.2e-06 M and 6e-06 M.
Regarding `CC1(O)CC(=O)OC(CCc2ccccc2OCc2ccccc2)C1` (stereo not drawn) [I, 3-Hydroxy-3-methyl-7-(o-benzyloxyphenyl)-5-heptanolide], the IC50 in assay [1] (setting [3]) amounted to 3.3e-05 M; in assay [2] it was 5e-05 M.
On to `CC1(O)CC(=O)OC(CCc2ccc(OCc3ccccc3)cc2)C1Br` (stereo not drawn) [J, 3-Hydroxy-3-methyl-4-bromo-7-(p-benzyloxyphenyl)-5-heptanolide], for which the values for the IC50 in assay [1] (setting [3]) and in assay [2] were 5.6e-06 M and 3e-05 M, respectively.
The corresponding values for `CC1(O)CC(=O)OC(CCc2ccccc2OCc2ccccc2)C1Br` (stereo not drawn) [K, 3-Hydroxy-3-methyl-4-bromo-7-(o-benzyloxyphenyl)-5-heptanolide] are 4.7e-05 M and 8.8e-05 M.
As for `CC1(O)CC(=O)OC(CCc2ccc(OCc3ccc(F)cc3)cc2)C1` (stereo not drawn) [L, 3-Hydroxy-3-methyl-7-[p-(p-fluorobenzyloxy)phenyl]-5-heptanolide], the IC50 in assay [2] worked out at 5e-05 M.
Regarding `CC1(O)CC(=O)OC(CCc2ccc(OCc3ccc(Cl)cc3)cc2)C1` (stereo not drawn) [M, 3-Hydroxy-3-methyl-7-[p-(p-chlorobenzyloxy)phenyl]-5-heptanolide], the IC50 in assay [2] came to 1.9e-05 M.
On to `CC1(O)CC(=O)OC(CCc2ccc(Cl)cc2)C1` (stereo not drawn) [N, 3-Hydroxy-3-methyl-7-(p-chlorophenyl)-5-heptanolide], for which the IC50 in assay [1] (setting [3]) was found to be 4.5e-05 M; in assay [2], 3e-05 M.
With `CC1(O)CC(=O)OC(CCc2ccc(Cl)cc2)C1Br` (stereo not drawn) [O, 3-Hydroxy-3-methyl-4-bromo-7-(p-chlorophenyl)-5-heptanolide], the IC50 in assay [1] (setting [3]) is 6.3e-05 M.
The same measure, in the same setting: the result for `COc1ccc(CCC2CC(C)(O)CC(=O)O2)cc1` (stereo not drawn) [P, 3-Hydroxy-3-methyl-7-(p-methoxyphenyl)-5-heptanolide] reads 6.3e-05 M.
The same measure, in the same setting: to `CC1C(C=Cc2ccccc2)OC(=O)CC1(C)O` (stereo not drawn) [Q, 3-Hydroxy-3,4-dimethyl-7-phenyl-6-hepten-5-olide] belongs 6.4e-05 M.
Regarding `CC1(O)CC(=O)OC(C=Cc2ccc(OCc3ccccc3)cc2)C1` (stereo not drawn) [R, 3-Hydroxy-3-methyl-7-(p-benzyloxyphenyl)-6-hepten-5-olide], the IC50 in assay [1] (setting [3]) was determined as 8.6e-06 M; in assay [2], 1.3e-05 M.
Regarding `CC1(O)CC(=O)OC(C=Cc2cccc(OCc3ccccc3)c2)C1` (stereo not drawn) [S, 3-Hydroxy-3-methyl-7-(m-benzyloxyphenyl)-6-hepten-5-olide], the IC50 in assay [1] (setting [3]) stood at 7.1e-05 M; in assay [2], 0.00012 M.
As for `COc1cc(CCC2CC(C)(O)CC(=O)O2)ccc1OCc1ccccc1` (stereo not drawn) [T, 3-Hydroxy-3-methyl-7-(p-benzyloxy-m-methoxyphenyl)-5-heptanolide], the IC50 in assay [1] (setting [3]) worked out at 2.1e-05 M; in assay [2], 1.1e-05 M.
Regarding `Cc1cc(OCc2ccccc2)cc(C)c1CCC1CC(C)(O)CC(=O)O1` (stereo not drawn) [U, 3-Hydroxy-3-methyl-7-(p-benzyloxy-o,o'-dimethylphenyl)-5-heptanolide], the IC50 in assay [1] (setting [3]) turned out to be 3.8e-06 M; in assay [2] it was 5.4e-06 M.
On to `Cc1cc(OCc2ccccc2)cc(C)c1CCC1OC(=O)CC(C)(O)C1Br` (stereo not drawn) [V, 3-Hydroxy-3-methyl-4-bromo-7-(p-benzyloxy-o,o'-dimethylphenyl)-5-heptanolide], for which the IC50 in assay [2] came out at 1e-05 M.
Regarding `COc1cc(CCC2CC(C)(O)CC(=O)O2)ccc1OC(C)=O` (stereo not drawn) [W, 3-Hydroxy-3-methyl-7-(p-acetoxy-m-methoxyphenyl)-5-heptanolide], the figures for the IC50 in assay [1] (setting [3]) and in assay [2] were 4.5e-05 M and 8.3e-05 M, respectively.
The corresponding values for `Cc1cc(OC(=O)c2ccccc2)cc(C)c1CCC1CC(C)(O)CC(=O)O1` (stereo not drawn) [X, 3-Hydroxy-3-methyl-7-(p-benzoyloxy-o,o'-dimethylphenyl)-5-heptanolide] are 3.9e-06 M and 6.5e-06 M.
As to `CC1(O)CC(=O)OC(CCCc2ccc(OCc3ccccc3)cc2)C1` (stereo not drawn) [Y, 3-Hydroxy-3-methyl-8-(p-benzyloxyphenyl)-5-octanolide], the IC50 worked out at 4e-06 M in assay [1] (setting [3]) and 7e-06 M in assay [2].
The corresponding values for `CC1(O)CC(=O)OC(CCCc2ccc(OCc3ccccc3)cc2)C1Br` (stereo not drawn) [Z, 3-Hydroxy-3-methyl-4-bromo-8-(p-benzyloxyphenyl)-5-octanolide] are 6.7e-06 M and 1.2e-05 M.
